This assay addresses T1, recombinant IL4I1 (Homo sapiens, UniProt Q96RQ9).
T1 construct: purchased R&D Systems 5684-AO-020
T1 sequence (Q96RQ9 22-567): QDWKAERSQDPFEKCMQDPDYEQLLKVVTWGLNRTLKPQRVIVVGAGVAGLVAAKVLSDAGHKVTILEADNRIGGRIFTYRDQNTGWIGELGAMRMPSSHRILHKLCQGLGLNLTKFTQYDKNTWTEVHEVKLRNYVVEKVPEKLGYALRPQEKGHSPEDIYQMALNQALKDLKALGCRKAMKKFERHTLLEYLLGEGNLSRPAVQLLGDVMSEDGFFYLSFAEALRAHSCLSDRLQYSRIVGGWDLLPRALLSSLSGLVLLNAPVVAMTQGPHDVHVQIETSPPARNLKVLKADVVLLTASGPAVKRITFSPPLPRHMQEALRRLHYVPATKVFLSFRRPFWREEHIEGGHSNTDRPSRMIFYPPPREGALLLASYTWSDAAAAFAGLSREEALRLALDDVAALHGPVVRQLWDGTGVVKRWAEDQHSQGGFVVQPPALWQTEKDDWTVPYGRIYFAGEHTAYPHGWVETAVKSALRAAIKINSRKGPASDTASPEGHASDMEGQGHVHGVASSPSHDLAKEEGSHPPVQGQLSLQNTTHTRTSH
As to the kind of experiment: IL4I1 Enzymatic Assay (Amplex Red/HRP coupled H2O2 detection). Type of assay: biochemical. The settings on record: 240 min; four-hour pre-incubation with compound; 1 nM IL4I1, 1 mM each Phe/Tyr/Trp; ten-point titration; fluorescence readout; read-out: Potency EC50 (nM) (240 min). Here is the method:
Interleukin 4 inducible protein 1 (IL4I1) is an L-amino oxidase that catalyzes the oxidation of aromatic residues (Phe, Trp and Tyr): L-amino acid+H2O+O2→2-oxo acid+NH3+H2O2. Equal molar of H2O2 and the corresponding alpha-ketoacid are produced when IL4I1 and substrate are added. In this assay, the hydrogen peroxide generated by IL4I1 is then detected through a coupled reaction with Amplex Red (10-acetyl-3,7-dihydroxyphenoxazine) and […] (HRP) to produce Resorufin product that could be detected in the form of fluorescence signals. The assessment of the inhibitory effect of small molecules (EC50) on IL4I1 is measured by the effectiveness of the compounds to inhibit the production of H2O2.
Using this assay, the potency (EC50) of each compound was determined from a ten-point (1:3 serial dilution) titration curve using the following outlined procedure. To each well of a black flat-bottom Greiner (Cat #781076) 384 well-plate, 25 nL of compound (0.1% DMSO in final assay volume of 25 μL) was dispensed, followed by the addition of 12.5 μL of 1x assay buffer (50 mM Hepes 7.0 and 0.005% Tween20 (Sigma, Cat #P8341; low peroxide grade)) containing 2 nM of recombinant IL4I1 (R&D Systems, Cat #5684-AO-020). Plates were placed in an ambient temperature humidified chamber for a four-hour pre-incubation with compound. Subsequently, each reaction was initiated by the addition of 12.5 μL 1x assay buffer containing 2 mM of each aromatic amino acids (Phe/Tyr/Trp), 0.1 mM Amplex Red and 2 U/mL of HRP. The final reaction in each well of 25 μL consists of 1 nM of IL411, 1 mM of each residues (Phe, Tyr and Trp), 0.05 mM Amplex Red and 1 U/mL of HRP. It should be noted that the concentrations of Amplex Red and HRP used here are in excess such that the conversion of H2O2 to Resorufin product occurs instantaneously and non-rate limiting. Reactions were allowed to proceed for 120 minutes followed by fluorescence readout on a Spectramax with the following set parameters: 544 nm excitation/590 nm emission, 570 nm cutoff (EnVision is an alternative reader). Dose-response curves were generated by plotting percent effect (% product conversion; Y-axis) vs. Log10 compound concentrations (X-axis). EC50 values were calculated using a non-linear regression, four-parameters sigmoidal dose-response model and are shown in Table 16.
For `Cc1cc(Cn2c(=O)[nH]c3ccccc32)ccc1Cc1nnco1` [Example 54, 1-(4-((1,3,4-oxadiazol-2-yl)methyl)-3-methylbenzyl)-1,3-dihydro-2H-benzo[d]imidazol-2-one], the EC50 amounted to 7 nM.
The result for `CN(C)C(=O)Cc1cccc(Cn2c(=O)[nH]c3ccccc32)c1` [Example 105, N,N-dimethyl-2-(3-((2-oxo-2,3-dihydro-1H-benzo[d]imidazol-1-yl)methyl)phenyl)acetamide] reads 10 nM; that for `CC(=O)NCc1ccc(Cn2c(=O)[nH]c3ccc(C)cc32)cc1` [Example 65, N-(4-((6-methyl-2-oxo-2,3-dihydro-1H-benzo[d]imidazol-1-yl)methyl)benzyl)acetamide], 24 nM; that for `O=c1[nH]c2ccccc2n1Cc1ccc(Cn2ccnn2)cc1` [Example 82, 1-(4-((1H-1,2,3-triazol-1-yl)methyl)benzyl)-1H-benzo[d]imidazol-2 (3H)-one], 48 nM.
Consider `CC(=O)NCc1ccc(Cn2c(=O)n(C(F)F)c3ccccc32)cc1` [Example 76, N-(4-((3-(difluoromethyl)-2-oxo-2,3-dihydro-1H-benzo[d]imidazol-1-yl)methyl)benzyl)acetamide], for which the EC50 worked out at 9 nM.
In the case of `CC(=O)Nc1ccc(Cn2c(=O)[nH]c3ccccc32)cc1F` [Example 32, N-{2-fluoro-4-[(2-oxo-2,3-dihydro-1H-benzimidazol-1-yl)methyl]phenyl} acetamide] it was 11 nM; in that of `O=C1CCCN1Cc1ccc(Cn2c(=O)[nH]c3ccccc32)cc1F` [Example 9, 1-({3-fluoro-4-[(2-oxopyrrolidin-1-yl)methyl]phenyl}methyl)-1,3-dihydro-2H-benzimidazol-2-one], 16 nM.
In the case of `O=c1[nH]c2cccc(F)c2n1Cc1ccccc1` [Example 110, 1-benzyl-7-fluoro-1,3-dihydro-2H-benzimidazol-2-one] it was 9160 nM; in that of `CN1CCN(c2cccc(Cn3c(=O)[nH]c4ccccc43)c2)CC1` [Example 80, 1-(3-(4-methylpiperazin-1-yl)benzyl)-1,3-dihydro-2H-benzo[d]imidazol-2-one], 27 nM.
The result for `CS(=O)(=O)NCc1ccc(Cn2c(=O)n(C(F)F)c3ccccc32)cc1` [Example 77, N-(4-((3-(difluoromethyl)-2-oxo-2,3-dihydro-1H-benzo[d]imidazol-1-yl)methyl)benzyl)methanesulfonamide] reads 6 nM; that for `C[C@@H]1NC(=O)O[C@H]1c1cccc(Cn2c(=O)[nH]c3ccccc32)c1` [Example 31, 1-({3-[(4S,5S)-4-methyl-2-oxo-1,3-oxazolidin-5-yl]phenyl}methyl)-1,3-dihydro-2H-benzimidazol-2-one], 15 nM; that for `CNC(=O)c1csc(Cn2c(=O)[nH]c3ccccc32)c1` [Example 13, N-methyl-5-((2-oxo-2,3-dihydro-1H-benzo[d]imidazol-1-yl)methyl)thiophene-3-carboxamide], 6 nM.
For `O=c1[nH]c2cc(Cl)ccc2n1Cc1ccc(Cc2nnco2)cc1` [Example 100], the EC50 is 784 nM.
As to `CS(=O)(=O)NCc1ccc(Cn2c(=O)[nH]c3ccccc32)cc1` [Example 12, N-(4-((2-oxo-2,3-dihydro-1H-benzo[d]imidazol-1-yl)methyl)benzyl)methanesulfonamide], the EC50 was 8 nM.
In the case of `O=C(Cc1ccc(Cn2c(=O)[nH]c3ccccc32)cc1)NC1CCC(F)C1` (centres unmarked) [Example 106, N-(3-fluorocyclopentyl)-2-(4-((2-oxo-2,3-dihydro-1H-benzo[d]imidazol-1-yl)methyl)phenyl)acetamide] it was 38 nM; in that of `O=c1n(Cc2ccccc2)c2ccccc2n1C(F)F` [Example 78, 1-benzyl-3-(difluoromethyl)-1,3-dihydro-2H-benzo[d]imidazol-2-one], 443 nM; in that of `O=C1N(Cc2ccc(Cn3c(=O)[nH]c4ccccc43)cc2)CCC1(F)F` [Example 43, 1-(4-((3,3-difluoro-2-oxopyrrolidin-1-yl)methyl)benzyl)-1,3-dihydro-2H-benzo[d]imidazol-2-one], 10 nM.

The term EC50 denotes the concentration giving half of the maximal effect.
